Results reported in US20090275583A1, “ANTIVIRAL COMPOUNDS AND USE THEREOF” (Myriad Genetics, Incorporated, priority 2006, published 2009).
Where two headings read alike, the source gives them in different places.

Legend:
[1] = system: HIV-1 laboratory strain, NL4-3; test: MT-4 cytoprotection assay; type: cell-based
Description: The HTLV-1 transformed T cell line, MT-4, is highly susceptible to HIV-1 infection. Anti-HIV-1 agents were evaluated in this target cell line by protection from the HIV-induced cytopathic effect. In this assay, viability of both HIV-1 and mock-infected cells was assessed in a […] assay that monitors the ability of metabolically-active cells to reduce the tetrazolium salt WST-1. Cytoprotection by antiviral compounds is indicated by the positive readout of increased WST-1 cleavage.
Briefly, exponentially growing MT-4 cells were mock-infected or batch-infected with the HIV-1 laboratory strain, NL4-3, at a multiplicity of infection of 0.0005. Following a two hour infection, the cells were washed to remove unbound virus and plated in the presence of increasing concentrations of compound. After four days incubation, cytoprotection in the infected cells and compound toxicity in mock-infected cells were analyzed using the WST-1 assay.

[2] = system: HIV-1NL4-3; test: P4-MAGI assay; type: cell-based
Description: P4 cells were used to test the effects of compounds on virus fusion activity. P4 cells are HIV-1 infectable CD4^+ HeLa cells that bear the bacterial lacZ gene under the control of a minimal HIV-1 LTR. Charneau, et. al., J. Mol. Biol. 241:651-662 (1994). When these cells are infected with HIV-1, β-galactosidase is expressed due to Tat activation of the viral LTR. In this assay, P4 cells were infected with the laboratory adapted strain HIV-1NL4-3 at a multiplicity of infection of 1 in the presence of DEAE-Dextran. Immediately after addition of virus to the cells, increasing concentrations of compound were added to the cells. […] The effect on cell viability (TC50, concentration of compound that inhibits growth by 50%) was determined in mock-infected cells with the WST-1 Cell Proliferation Reagent (Roche Diagnostics).

[3] = Human immunodeficiency virus 1, NL43, MT4, 96 h, MT-4 cells, four days incubation, WST-1 readout, read-out: MT4 EC50
[4] = Human immunodeficiency virus 1, NL43, less than about 100 nm, read-out: MT-4 assay EC50 (concentration of compound that reduces the virus induced cytopathic effect by 50%)
[5] = Human immunodeficiency virus 1, 24 h, P4 cells, 24 hour incubation, β-galactosidase expression, read-out: P4-MAGI IC50
[6] = Human immunodeficiency virus 1, text statement, less than about 100 nm, read-out: P4-MAGI assay IC50

| Structure (SMILES) | EC50 [1, 3] [µM] | EC50 [1, 4] [µM] | IC50 [2, 5] [µM] | IC50 [2, 6] [µM] |
| --- | --- | --- | --- | --- |
| C=C(C)[C@@H]1CC[C@]2(C(=O)NCc3ccc(F)c(C(=O)NCc4ccc(C(=O)OC)cc4)c3)CC[C@]3(C)C(CCC4[C@@]5(C)CC[C@H](O)C(C)(C)C5CC[C@]43C)C12 (stereo partly drawn) [Example 108] | 0.1 | < 0.1 | 0.109 |  |
| C=C(C)[C@@H]1CC[C@]2(C(=O)NCc3cccc(C(=O)NCc4ccc(OCCCN5CCOCC5)c(C(=O)O)c4)c3)CC[C@]3(C)C(CCC4[C@@]5(C)CC[C@H](O)C(C)(C)C5CC[C@]43C)C12 (stereo partly drawn) [Example 124] | 0.008 | < 0.1 | 0.0279 | < 0.1 |
| C=C(C)[C@@H]1CC[C@]2(C(=O)NCc3cccc(CNCc4nc5ccc(C(=O)O)cc5[nH]4)c3)CC[C@]3(C)C(CCC4[C@@]5(C)CC[C@H](O)C(C)(C)C5CC[C@]43C)C12 (stereo partly drawn) [Example 80] | 1 |  | 0.242 |  |
| C=C(C)[C@@H]1CC[C@]2(C(=O)NCCc3cccc(C(=O)NCC4COCC(C(=O)O)O4)c3)CC[C@]3(C)C(CCC4[C@@]5(C)CC[C@H](O)C(C)(C)C5CC[C@]43C)C12 (stereo partly drawn) [Example 258] | 0.984 |  | 0.112 |  |
| C=C(C)[C@@H]1CC[C@]2(C(=O)NCCc3cccc(C(=O)NCc4ccc(C(=O)N[C@H](Cc5cc6ccccc6[nH]5)C(=O)OC)cc4)c3)CC[C@]3(C)C(CCC4[C@@]5(C)CC[C@H](O)C(C)(C)C5CC[C@]43C)C12 (stereo partly drawn) [Example 167] | 0.019 |  | 0.022 |  |
| C=C(C)[C@@H]1CC[C@]2(C(=O)NCc3ccc(F)c(C(=O)NCCc4ccc(C(=O)O)cc4)c3)CC[C@]3(C)C(CCC4[C@@]5(C)CC[C@H](O)C(C)(C)C5CC[C@]43C)C12 (stereo partly drawn) [Example 103] | 0.0073 | < 0.1 | 0.0693 | < 0.1 |
| C=C(C)[C@@H]1CC[C@]2(C(=O)NCc3cccc(C(=O)NCc4cc(C(=O)O)ccc4F)c3)CC[C@]3(C)C(CCC4[C@@]5(C)CC[C@H](O)C(C)(C)C5CC[C@]43C)C12 (stereo partly drawn) [Example 26] | 0.2 |  | 0.0786 | < 0.1 |
| C=C(C)[C@@H]1CC[C@]2(C(=O)NCCc3cccc(C(=O)NCc4ccc(S(=O)(=O)NCCN5CCOCC5)cc4)c3)CC[C@]3(C)C(CCC4[C@@]5(C)CC[C@H](O)C(C)(C)C5CC[C@]43C)[C@@H]12 (stereo partly drawn) [Example 148] | 0.053 |  | 0.006 |  |
| C=C(C)[C@@H]1CC[C@]2(C(=O)NCCc3cccc(C(=O)NCc4ccc(C(=O)N5CC(O)C[C@@H]5C(=O)O)cc4)c3)CC[C@]3(C)C(CCC4[C@@]5(C)CC[C@H](O)C(C)(C)C5CC[C@]43C)C12 (stereo partly drawn) [Example 178] | 0.035 |  | 0.021 |  |
| C=C(C)[C@@H]1CC[C@]2(C(=O)NCCc3cccc(C(=O)NCc4ccc(C(=O)O)cc4)c3)CC[C@]3(C)C(CCC4[C@@]5(C)CC[C@H](O)C(C)(C)C5CC[C@]43C)C12 (stereo partly drawn) [Example 67] | 0.023 | < 0.1 | 0.0075 | < 0.1 |
| C=C(C)[C@@H]1CC[C@]2(C(=O)NCCc3cccc(C(=O)NCc4ccc(C(=O)N[C@@H](C(=O)O)[C@H](C)O)cc4)c3)CC[C@]3(C)C(CCC4[C@@]5(C)CC[C@H](O)C(C)(C)C5CC[C@]43C)C12 (stereo partly drawn) [Example 160] | 0.039 |  | 0.015 |  |
| CC1(C)C2CC[C@]3(C)C(CCC4C5[C@H]([C@@](C)(O)CO)CC[C@]5(C(=O)NCCc5cccc(C(=O)NCc6ccc(C(=O)O)cn6)c5)CC[C@]43C)[C@@]2(C)CC[C@@H]1O (stereo partly drawn) [Example 271] | 1.81 |  | 0.119 |  |
| C=C(C)[C@@H]1CC[C@]2(C(=O)NCc3cccc(C(=O)NCCNC(=O)OCc4ccccc4)c3)CC[C@]3(C)C(CCC4[C@@]5(C)CC[C@H](O)C(C)(C)C5CC[C@]43C)C12 (stereo partly drawn) [Example 5] | 2.5 |  | 0.107 |  |
| C=C(C)[C@@H]1CC[C@]2(C(=O)NCc3cccc(C(=O)NCc4cccc(-c5nn[nH]n5)c4)c3)CC[C@]3(C)C(CCC4[C@@]5(C)CC[C@H](O)C(C)(C)C5CC[C@]43C)C12 (stereo partly drawn) [Example 21] | 0.18 |  | 0.0248 |  |
| C/C(=C/C#N)[C@@H]1CC[C@]2(C(=O)NCCc3cccc(C(=O)NCc4ccc(C(=O)O)cn4)c3)CC[C@]3(C)C(CCC4[C@@]5(C)CC[C@H](O)C(C)(C)C5CC[C@]43C)C12 (stereo partly drawn) [Example 269] | 0.039 |  | 0.0114 |  |
| C=C(C)[C@@H]1CC[C@]2(C(=O)NCc3cc(C(=O)NCCc4cccc(C(=O)OC)c4)ccc3F)CC[C@]3(C)C(CCC4[C@@]5(C)CC[C@H](O)C(C)(C)C5CC[C@]43C)C12 (stereo partly drawn) [Example 98] | 0.013 | < 0.1 | 0.0577 | < 0.1 |
